Test results taken from paper PMC6405874, “Development of a novel short 12-meric papiliocin-derived peptide that is effective against Gram-negative sepsis” (Scientific Reports, 2019).
In brackets after ≈: the same amount, converted by molar mass. No end group written: not given here.

Legend:
A. baumannii (KCTC 2508) = conditions: 1% peptone, 2 × 10^6 CFU/mL, 16 h, 37 °C
Method: (§1) The antimicrobial activities of Pap12 peptides were tested against four standard Gram-negative bacteria (E. coli, Pseudomonas aeruginosa, Acinetobacter baumannii, and Salmonella typhimurium), three standard Gram-positive bacteria (Staphylococcus aureus, Bacillus subtilis, and Staphylococcus epidermidis), and five MDR bacteria (MDREC CCARM 1229, MDRPA CCARM 2002, MDRAB CCARM 12035, MDRST CCARM 8007, and MRSA CCARM 3126) using the microbroth dilution method. The relative antibacterial activities were compared based on geometric means of MICs (GM).
(§2) Escherichia coli (KCTC 1682), Pseudomonas aeruginosa (KCTC 2004), Acinetobacter baumannii (KCTC 2508), Salmonella typhimurium (KCTC 1926), Bacillus subtilis (KCTC 3068), Staphylococcus aureus (KCTC 1621), and Staphylococcus epidermidis (KCTC 1917) were purchased from the Korean Collection for Type Cultures, Korea Research Institute of Bioscience & Biotechnology (Taejon, Korea). Clinical isolates of MDR E. coli (MDREC; CCARM 1229), P. aeruginosa (MDRPA; CCARM 2002), A. baumannii (MDRAB; CCARM 12035), S. typhimurium (MDRST; CCARM 8007), and S. aureus (MDRSA; CCARM 3126) were supplied by the Culture Collection of Antibiotic-Resistant Microbe (CCARM) at Seoul Women’s University in Korea. The E. coli K1 strain RS218 (O18:K1:H7) was kindly provided by Dr. Jang-Won Yoon of Kangwon National University (Gangwon-do, Korea).
(§3) Peptides were treated with 2 × 10^6 CFU/mL bacterial suspensions in 1% peptone media for 16 h at 37 °C.

[1] = system: MDRAB 12035 (MDR A. baumannii CCARM 12035); conditions: 1% peptone, 2 × 10^6 CFU/mL, 16 h, 37 °C
Method: as §1, §2, §3

[2] = system: MDREC 1229 (MDR E. coli CCARM 1229); conditions: 1% peptone, 2 × 10^6 CFU/mL, 16 h, 37 °C
Method: as §1, §2, §3

[3] = system: MDRPA 2002 (MDR P. aeruginosa CCARM 2002); conditions: 1% peptone, 2 × 10^6 CFU/mL, 16 h, 37 °C
Method: as §1, §2, §3

[4] = system: MDRST 8007 (MDR S. typhimurium CCARM 8007); conditions: 1% peptone, 2 × 10^6 CFU/mL, 16 h, 37 °C
Method: as §1, §2, §3

MRSA 3126 (CCARM 3126) = conditions: 1% peptone, 2 × 10^6 CFU/mL, 16 h, 37 °C
Method: as §1, §2, §3

[5] = system: S. epidermidis (KCTC 1917); conditions: 1% peptone, 2 × 10^6 CFU/mL, 16 h, 37 °C
Method: as §1, §2, §3

Gram-negative bacteria = conditions: eight Gram-negative strains of Table 2
Method: as §1
(§4) The therapeutic index (TI) was calculated (Table 2) using HC10, the peptide concentration required to induce 10% hemolysis.
as §3

Gram-positive bacteria = conditions: four Gram-positive strains of Table 2
Method: as §1, §4, §3

[6] = system: human red blood cells (hRBCs); assay: Hemolysis of human red blood cells
Method: as §4
The toxicity of peptides to human red blood cells (hRBCs) was determined by measuring the peptide-induced release of haem, and percent hemolysis was calculated as described previously. The peptide-induced cytotoxicity of mouse RAW 264.7 macrophages, human keratinocyte HaCaT cells, and HEK-293 cells were determined by 3-(4,5-dimethylthiazol-2-yl)-2,5-diphenyltetrazolium bromide (MTT) assays as previously described.

[7] = system: mouse macrophage RAW 264.7 cells; assay: MTT cytotoxicity; assay type: cell-based; conditions: for cell survival: RAW 264.7, MTT
Excerpt: (§5) The toxicities of peptides against mammalian cells were checked by measuring the survival rate of mouse macrophage RAW 264.7 cells, human keratinocyte HaCaT cells, and HEK-293 human embryonic kidney epithelial (HEK-293) cells after treatment with different concentrations of peptides (Fig. 2B–D). […] Since melittin has higher hydrophobicity and a […] amphiphatic moment (µH) than those of Pap12 peptides, as listed in Table 1, its toxicity is much higher than those of Pap12 peptides.

B. subtilis (KCTC 3068) = conditions: 1% peptone, 2 × 10^6 CFU/mL, 16 h, 37 °C
Method: as §1, §2, §3

E. coli (KCTC 1682) = conditions: 1% peptone, 2 × 10^6 CFU/mL, 16 h, 37 °C
Method: as §1, §2, §3

[8] = system: P. aeruginosa (KCTC 2004); conditions: 1% peptone, 2 × 10^6 CFU/mL, 16 h, 37 °C
Method: as §1, §2, §3

S. aureus (KCTC 1621) = conditions: 1% peptone, 2 × 10^6 CFU/mL, 16 h, 37 °C
Method: as §1, §2, §3

[9] = system: S. typhimurium (KCTC 1926); conditions: 1% peptone, 2 × 10^6 CFU/mL, 16 h, 37 °C
Method: as §1, §2, §3

[10] = system: HEK-293 human embryonic kidney epithelial cells; assay: MTT cytotoxicity; assay type: cell-based; conditions: HEK-293, MTT, 50 µM
Excerpt: as §5

[11] = system: human keratinocyte HaCaT cells; assay: MTT cytotoxicity; assay type: cell-based; conditions: 50 µM
Excerpt: as §5

[12] = Survival of non-infected mice given peptide (acute toxicity); assay type: in vivo, BALB/c mice; conditions: 10 mg/kg i.p., over 4 days, 10 mice
Method: To determine the in vivo survival rate, four groups were established with 10 BALB/c mice per group. For the control group, 10 mice were given an intraperitoneal (i.p.) injection with PBS. […] In the third group, 10 mice were i.p. injected with Pap12-6 (10 mg/kg). […] Survival was evaluated for 4 days (0, 6, 12, 18, 24, 30, 36, 48, 60, 72, 84, and 96 h).

CC[C@H](C)[C@H](NC(=O)CN)C(=O)NCC(=O)N[C@@H](C)C(=O)N[C@H](C(=O)N[C@@H](CC(C)C)C(=O)N[C@@H](CCCCN)C(=O)N[C@H](C(=O)N[C@@H](CC(C)C)C(=O)N[C@H](C(=O)N[C@H](C(=O)NCC(=O)N[C@@H](CC(C)C)C(=O)N1CCC[C@H]1C(=O)N[C@@H](C)C(=O)N[C@@H](CC(C)C)C(=O)N[C@H](C(=O)N[C@@H](CO)C(=O)N[C@@H](Cc1c[nH]c2ccccc12)C(=O)N[C@H](C(=O)N[C@@H](CCCCN)C(=O)N[C@@H](CCCNC(=N)N)C(=O)N[C@@H](CCCCN)C(=O)N[C@@H](CCCNC(=N)N)C(=O)N[C@@H](CCC(N)=O)C(=O)N[C@@H](CCC(N)=O)C(N)=O)[C@@H](C)CC)[C@@H](C)CC)[C@@H](C)O)[C@@H](C)O)C(C)C)C(C)C [Melittin, reference compound]
Minimal inhibitory concentration (MIC), A. baumannii (A. baumannii (KCTC 2508)): 8 µM (≈ 22.8 µg/mL)
Minimal inhibitory concentration (MIC), MDRAB 12035 [1]: 4 µM (≈ 11.4 µg/mL)
Minimal inhibitory concentration (MIC), MDREC 1229 [2]: 8 µM (≈ 22.8 µg/mL)
Minimal inhibitory concentration (MIC), MDRPA 2002 [3]: 4 µM (≈ 11.4 µg/mL)
Minimal inhibitory concentration (MIC), MDRST 8007 [4]: 8 µM (≈ 22.8 µg/mL)
Minimal inhibitory concentration (MIC), MRSA 3126 (MRSA 3126 (CCARM 3126)): 2 µM (≈ 5.69 µg/mL)
Minimal inhibitory concentration (MIC), S. epidermidis [5]: 4 µM (≈ 11.4 µg/mL)
GM, geometric mean of MICs, Gram-negative bacteria (Gram-negative bacteria): 6 µM
GM, geometric mean of MICs, Gram-positive bacteria (Gram-positive bacteria): 3 µM
toxicity against hRBCs (in words) ([6]; hRBCs): highly toxic
cytotoxicity against mammalian cells (in words) ([7]; MTT, RAW 264.7, HaCaT and HEK-293 cells (Fig. 2B-D)): displayed cytotoxicity at very low concentrations

RWKIFKKVVKKA-NH2 [Pap12-5]
Minimal inhibitory concentration (MIC), A. baumannii (A. baumannii (KCTC 2508)): 8 µM
Minimal inhibitory concentration (MIC), B. subtilis (B. subtilis (KCTC 3068)): 16 µM
Minimal inhibitory concentration (MIC), E. coli (E. coli (KCTC 1682)): 8 µM
Minimal inhibitory concentration (MIC), MDRAB 12035 [1]: 8 µM
Minimal inhibitory concentration (MIC), MDREC 1229 [2]: 16 µM
Minimal inhibitory concentration (MIC), MDRPA 2002 [3]: 16 µM
Minimal inhibitory concentration (MIC), MDRST 8007 [4]: 16 µM
Minimal inhibitory concentration (MIC), MRSA 3126 (MRSA 3126 (CCARM 3126)): 16 µM
Minimal inhibitory concentration (MIC), P. aeruginosa [8]: 8 µM
Minimal inhibitory concentration (MIC), S. aureus (S. aureus (KCTC 1621)): 8 µM
Minimal inhibitory concentration (MIC), S. epidermidis [5]: 16 µM
Minimal inhibitory concentration (MIC), S. typhimurium [9]: 32 µM
GM, geometric mean of MICs, Gram-negative bacteria (Gram-negative bacteria): 14 µM
GM, geometric mean of MICs, Gram-positive bacteria (Gram-positive bacteria): 14 µM
HC10, peptide concentration resulting in 10% hemolysis of fresh human erythrocytes [6]: 200 µM

RWKIFKKVVKKW-NH2 [Pap12-6]
Minimal inhibitory concentration (MIC), A. baumannii (A. baumannii (KCTC 2508)): 4 µM
Minimal inhibitory concentration (MIC), B. subtilis (B. subtilis (KCTC 3068)): 8 µM
Minimal inhibitory concentration (MIC), E. coli (E. coli (KCTC 1682)): 4 µM
Minimal inhibitory concentration (MIC), MDRAB 12035 [1]: 4 µM
Minimal inhibitory concentration (MIC), MDREC 1229 [2]: 8 µM
Minimal inhibitory concentration (MIC), MDRPA 2002 [3]: 8 µM
Minimal inhibitory concentration (MIC), MDRST 8007 [4]: 8 µM
Minimal inhibitory concentration (MIC), MRSA 3126 (MRSA 3126 (CCARM 3126)): 8 µM
Minimal inhibitory concentration (MIC), P. aeruginosa [8]: 4 µM
Minimal inhibitory concentration (MIC), S. aureus (S. aureus (KCTC 1621)): 4 µM
Minimal inhibitory concentration (MIC), S. epidermidis [5]: 8 µM
Minimal inhibitory concentration (MIC), S. typhimurium [9]: 8 µM
GM, geometric mean of MICs, Gram-negative bacteria (Gram-negative bacteria): 6 µM
GM, geometric mean of MICs, Gram-positive bacteria (Gram-positive bacteria): 7 µM
HC10, peptide concentration resulting in 10% hemolysis of fresh human erythrocytes [6]: 100 µM
cytotoxicity (in words) [10]: no cytotoxicity
cytotoxicity (in words) [11]: no cytotoxicity
cell survival ([7]; 50 µM): 80%
cell survival ([7]; up to 25 µM): 100%
survival of non-infected mice (lack of acute toxicity) [12]: all mice survived
